Patent US5736568A, “2-(aminoalkoxy) phenylalkylamines with antiinflammatory activity” (Knoll Aktiengesellschaft, priority 1994, dated 1998)

Key:
[1] = test system: arachidonic acid release from zymosan stimulated macrophages; assay: Test A: Inhibition of Arachidonic Acid Release from Zymosan Stimulated Macrophages; assay type: cell-based, mice (female MF1); details: Mus musculus, Macrophage; peritoneal macrophages labelled with [3H]-arachidonic acid, zymosan stimulus, 5 h; tested at 100, 50, 20, 10, 5 and 1 μM
Description: Test A was carried out in the following way:
Inhibition of Arachidonic Acid Release from Zymosan Stimulated Macrophages
Female MF1 mice (weighing 20 to 25 g) were killed using a rising concentration of CO2. The mice were laid on their backs and the abdomens wiped with 70% alcohol. The skin was pulled back, exposing the peritoneal wall. Medium A (5 ml) (see below) was injected into the peritoneal cavity of each mouse followed by approximately 1 ml of air using a 20 ml syringe and a 21 G×40 mm needle in order to form a suspension of macrophage cells. The medium and cells were then removed using a 19 G×40 mm needle. The resulting suspension was returned to a sterile beaker kept on ice. The extracts from all the mice were pooled and this pooled cell suspension was counted using a Coulter counter and adjusted to a final cell count of 1-1.3×10^6 cells/ml prior to labelling with [^3 H]-arachidonic acid. Typically five mice provided sufficient cells for each multiwell plate.
Sufficient [^3 H]-arachidonic acid in ethanol to give a final concentration of 1.6 μCi/ml (equivalent to 40 μCi/plate) was blown to dryness under nitrogen. The arachidonic acid was then resuspended in 1 or 2 ml of the cell suspension which was then mixed with the remainder of the cell suspension in a centrifuge bottle.
The following day, non-adherent cells were removed by washing 3 times with sterile phosphate buffered saline (PBS). The adherent peritoneal macrophages were then cultured for a further 24 hours in the presence or absence of drugs, in medium B (see below) at 37° in a 5% CO2 atmosphere in order to measure the effects of drugs on the spontaneous release of arachidonic acid in the absence of stimulus. After this incubation, supernatants were removed to give medium 1 and stored in sealed multi-well plates at 4° C. prior to scintillation counting. […] The supernatants were replaced by fresh medium C containing fresh drug and a stimulus. Three drugs were tested at six concentrations (100, 50, 20, 10, 5 and 1 μM) in replicates of four on each plate. The other wells contained controls consisting of a positive control (e.g. dexamethasone), medium (B) only and medium C only.
Incubation was then continued for a further 5 hours, whereupon the supernatants were collected to give medium 2 and the adherent cells washed with PBS. The cells were then lysed with 100 μl of 0.1% TRITON® X100 in a 0.1% solution of bovine serum albumin in 0.9% saline and mechanically disrupted to give cell lysates. These supernatants (medium 2) and cell lysates (Cells) were also stored in sealed multi-well plates at 4° C. prior to scintillation counting. 200 μl aliquots of media, or 100 μl aliquots of cells were counted using 2 ml of OPTIPHASE "HIGH SAFE" (Trademark of LKB) as scintillant.
The percentage of arachidonic acid released was calculated using the mean values for each group of 4 wells in the following equation. [formula]
The percentage inhibition of arachidonic acid release caused by a drug may then be calculated using the following equation. [formula]
Medium A (for peritoneal lavage)
This mixture was transferred to sterile flask and made up to 400 ml with sterile water.
Medium B (for cell culture)
This mixture was transferred to a sterile beaker and made up to 650 ml with sterile water.
Medium C=medium B+stimulant (zymosan)
The zymosan stimulant was prepared as follows:--zymosan (200 mg) (supplied by Sigma) was added to PBS (20 ml). The mixture was boiled for 30 minutes and the volume restored to 20 ml with water. The zymosan was harvested by centrifugation at 500×g for 5 minutes, washed twice by resuspension in PBS (10 ml) and centrifugation. After the final separation, the zymosan was resuspended in 20 ml PBS and stored as 1 ml aliquots at -20° C.

[2] = test system: carrageenan-induced paw oedema; assay: Test B: Carrageenan-induced rat paw oedema test; assay type: in vivo; details: inhibition of paw oedema, 100 mg/kg oral, 3 h after carrageenan
Description: Test B was carried out in the following way:
Carrageenan-induced rat paw oedema test
Female rats, weight range 125-150 g were fasted overnight. One of the hind legs of each animal was marked with a line at the connection between the cuboid/navicular and calcaneus/talus bones. Groups of six rats were orally dosed at 10 ml/kg, in random order, with a given dose of the test compound given as a solution or suspension in 10% (w/v) aqueous acacia solution.
One hour after dosing, 0.1 ml of 1% (w/v) sterile carrageenan λ in normal saline was injected deeply into the plantar surface of the marked hind foot of each rat. The volume of the foot (up to the marked line) was measured immediately after injection using duplicate water displacement readings. Three hours after injection the foot volume was measured again and the percentage increase in foot volume relative to the initial reading was calculated.
The increase in foot volume (i.e. the degree of oedema) in drug treated animals when compared with that in the drug untreated control gave the degree of inhibition of paw oedema by the drug.
Compounds were considered to be active in this test if they produced a statistically significant (typically 20% or greater) inhibition of paw oedema in at least two out of three tests after oral dosing at 100 mg/kg. Statistical significance was assessed using the Student's t test for single dose studies and Dunnett's test for multiple dose studies. More advantageous compounds were active in both Tests A and B,

[3] = test system: carrageenan-induced pleurisy; assay: Test C: Carrageenan-induced pleurisy in rats; assay type: in vivo, rat; details: 24 h and 48 h, leukocytes harvested at 72 h; for activity in Test C at 30 mg/kg: 30 mg/kg p.o. at challenge; for activity in Test C at 10 mg/kg or less: 10 mg/kg or less p.o. at challenge
Description: The most advantageous compounds of formula I were active in Test A and also in the following test. Carrageenan-induced pleurisy in rats was carried out as described by Ackerman et al. J. Pharmacol. Exp. Therap. 1980, 215, 588-595. Migrating leukocytes were harvested by lavage of the thoracic cavity 72 h after injection of 0.3 ml 1% λ-carrageenan in sterile isotonic saline. Test compounds were administered p.o. at the time of challenge and 24 h and 48 h thereafter.

Row | IC50 [1] | Compound | inhibition at 100 mg/kg [2] | activity in Test C at 30 mg/kg [3] | activity in Test C at 10 mg/kg or less [3]
1 | 10 µM | CN(CCOc1ccc(Cl)cc1CN1CCCCC1)Cc1ccccc1 [Example 11, N-Benzyl-2-[4-chloro-2-(piperidinomethyl)phenoxy]-N-methylethylamine] | 47% | active | –
2 | 13 µM | CN(C)Cc1ccccc1OCCN(C)Cc1ccc(Cl)cc1 [Example 17, 2-{2-[N-(4-Chlorobenzyl)-N-methylamino]ethoxy}-N,N-dimethylbenzylamine] | 36% | – | active
3 | 36 µM | CN(C)Cc1ccccc1OCCN(C)Cc1ccccc1 [Example 20, 2-[2-(N-Benzyl-N-methylamino)ethoxy]-N,N-dimethylbenzylamine] | 64% | active | –
4 | 22 µM | CN(C)Cc1cc(Cl)ccc1OCCN(C)Cc1ccccc1 [Example 21, 2-[2-(N-Benzyl-N-methylamino)ethoxy]-5-chloro-N,N-dimethylbenzylamine] | 31% | – | active
5 | 14 µM | CN(C)CCOc1ccc(Cl)cc1CN(C)C [Example 22, 5-Chloro-2-(2-dimethylaminoethoxy)-N,N-dimethylbenzylamine] | 26% | active | –

Row | Compound | IC50 [1] | inhibition at 100 mg/kg [2] | activity in Test C at 30 mg/kg [3] | activity in Test C at 10 mg/kg or less [3]
6 | CN(C)Cc1cc(Cl)ccc1OCCCN(C)Cc1ccccc1 [Example 12, 2-[3-(N-Benzyl-N-methylamino)propoxy]-5-chloro-N,N-dimethylbenzylamine] | 8 µM | 68% | active | –
7 | CN(C)Cc1c(OCCN(C)Cc2ccccc2)ccc(Cl)c1Cl [Example 13, 2-[2-(N-Benzyl-N-methylamino)ethoxy]-5,6-dichloro-N,N-dimethylbenzylamine] | 8 µM | 70% | active | –
